Experiment [1] deals with T1, PAK4 kinase activity in whole cells (TR-293-KDG, modified HEK 293) (Homo sapiens, UniProt O96013).
T1 construct: engineered to overexpress both GEF-H1b and the kinase domain (KD) of PAK4; expressed in transfected cells; host or cells: TR-293-KDG (modified HEK 293, Trex system, Invitrogen)
Nature of the experiment: PAK4 cellular assay: sandwich ELISA of PAK4-dependent phosphorylation of GEF-H1b in TR-293-KDG cells. In kind it is cell-based. The following applies: 3-hour exposure. For orientation: In an ELISA, binding on a coated surface is turned into a signal by an enzyme label.

Experiment [2] addresses T2, PAK4 Kinase domain (PAK4 KD) (Homo sapiens, UniProt O96013).
T2 construct: Cloning, expression, and purification of recombinant PAK4 Kinase domain (PAK4 KD); His tag (pET28a(+)/pET24a(+), Ni-NTA purification) (N, cleaved yes); GST (pGST4.5, glutathione column) (N, cleaved yes); made in house; host or cells: E. coli BL21(DE3)
Nature of the experiment: PAK4 kinase domain enzymatic assay (PK/LDH-coupled, Ki). In kind it is biochemical. As to conditions: PAK4 Kinase Domain.

T1 sequence (O96013 321-572 limits assumed): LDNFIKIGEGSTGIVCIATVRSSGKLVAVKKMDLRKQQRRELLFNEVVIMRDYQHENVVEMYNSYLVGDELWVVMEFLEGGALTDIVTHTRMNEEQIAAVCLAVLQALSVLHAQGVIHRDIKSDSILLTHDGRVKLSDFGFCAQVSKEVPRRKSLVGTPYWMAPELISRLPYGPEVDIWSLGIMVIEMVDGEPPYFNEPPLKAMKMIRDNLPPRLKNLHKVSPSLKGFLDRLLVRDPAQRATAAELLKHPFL
T2 sequence (O96013 321-572 limits assumed): as above

Take `CN(C)C[C@@H](OC(=O)N1Cc2c(NC(=O)C3CN(C)CCO3)n[nH]c2C1(C)C)c1ccccc1` (stereo partly drawn) [Example 17, (1S)-2-(dimethylamino)-1-phenylethyl 6,6-dimethyl-3-{[(4-methylmorpholin-2-yl)carbonyl]amino}-4,6-dihydropyrrolo[3,4-c]pyrazole-5(1H)-carboxylate]: in experiment [1], the EC50 amounted to 110 nM. Besides, affinity in experiment [2] was put at a Ki of 259 nM.

`CN(C)CC(OC(=O)N1Cc2c(NC(=O)c3ccc(F)cc3)n[nH]c2C1(C)C)c1cccc2cccnc12` (stereo not shown) [Example 94, 2-(dimethylamino)-1-(quinolin-8-yl)ethyl 3-(4-fluorobenzamido)-6,6-dimethylpyrrolo[3,4-c] pyrazole-5(1H,4H,6H)-carboxylate] displayed an EC50 in experiment [1] of 413 nM. For the same molecule, in experiment [2], the Ki came out at 161 nM.

On to `CN(C)CC(OC(=O)N1Cc2c(NC(=O)c3ccc(F)cc3)n[nH]c2C1(C)C)c1ccc(C#N)cc1` (stereo not shown) [Example 95, 1-(4-cyanophenyl)-2-(dimethylamino)ethyl 3-(4-fluorobenzamido)-6,6-dimethylpyrrolo[3,4-c] pyrazole-5(1H,4H,6H)-carboxylate], for which, in experiment [1], the half-maximal effective concentration (EC50) turned out to be 127 nM. In experiment [2], this molecule returned a Ki of 137 nM.

The molecule `CN(C)C[C@@H](NC(=O)N1Cc2c(n[nH]c2NC(=O)c2nccs2)C1(C)C)c1ccccc1` [Example 71, N-[(1S)-2-(dimethylamino)-1-phenylethyl]-6,6-dimethyl-3-[(1,3-thiazol-2-ylcarbonyl)amino]-4,6-dihydropyrrolo[3,4-c]pyrazole-5(1H)-carboxamide] gave an EC50 in experiment [1] of 84.1 nM. This molecule also gave a Ki in experiment [2] of 101 nM.

In experiment [1], `Cc1cc(C(=O)Nc2n[nH]c3c2CN(C(=O)O[C@H](CN(C)C)c2ccccc2)C3(C)C)no1` [Example 86, (S)-2-(dimethylamino)-1-phenylethyl 6,6-dimethyl-3-(5-methylisoxazole-3-carboxamido)pyrrolo[3,4-c]pyrazole-5(1H,4H,6H)-carboxylate] had an EC50 of 18 nM. For the same molecule, the affinity in experiment [2], expressed as Ki, was 68.7 nM.

`CC1(C)c2[nH]nc(NC(=O)c3cccs3)c2CN1C(=O)N[C@H]1C[C@@H]1c1ccccc1` (relative stereo) [Example 98, 6,6-dimethyl-N-[trans-2-phenylcyclopropyl]-3-[(2-thienylcarbonyl)amino]-4,6-dihydropyrrolo[3,4-c]pyrazole-5(1H)-carboxamide] had an EC50 in experiment [1] of 1080 nM. Further, affinity in experiment [2] was put at a Ki of 19.5 nM.

With `COc1ccc(CC(=O)Nc2n[nH]c3c2CN(C(=O)N[C@H](CN(C)C)c2ccccc2)C3(C)C)cc1` [Example 55, N-[(1S)-2-(dimethylamino)-1-phenylethyl]-3-{[(4-methoxyphenyl)acetyl]amino}-6,6-dimethyl-4,6-dihydropyrrolo[3,4-c]pyrazole-5(1H)-carboxamide], in experiment [1], the EC50 came out at 148 nM. In experiment [2], this molecule showed a Ki of 13.6 nM.

Consider `COc1ccc(CC(=O)Nc2n[nH]c3c2CN(C(=O)O[C@H](CN(C)C)c2ccccn2)C3(C)C)cc1` [Example 88, (1R)-2-(dimethylamino)-1-pyridin-2-ylethyl 3-{[(4-methoxyphenyl)-acetyl]amino}-6,6-dimethyl-4,6-dihydropyrrolo[3,4-c]pyrazole-5(1H)-carboxylate], for which the EC50 in experiment [1] was determined as 88 nM. Besides, in experiment [2], the Ki was determined as 35.6 nM.

With `CC1(C)c2[nH]nc(NC(=O)c3ccc(F)cc3)c2CN1C(=O)OC(CN1CCCC1)c1ccccc1` (stereo not shown) [Example 43, 1-phenyl-2-pyrrolidin-1-ylethyl 3-[(4-fluorobenzoyl)amino]-6,6-dimethyl-4,6-dihydropyrrolo[3,4-c]pyrazole-5(1H)-carboxylate], in experiment [1], the response was half-maximal at 439 nM (EC50). The molecule also had a Ki in experiment [2] of 58.1 nM.

For `CN(C)C[C@@H](NC(=O)N1Cc2c(NC(=O)c3ccc(C(F)(F)F)cc3)n[nH]c2C1(C)C)c1ccccc1` [Example 50, N-[(1S)-2-(dimethylamino)-1-phenylethyl]-6,6-dimethyl-3-{[4-(trifluoromethyl)benzoyl]amino}-4,6-dihydropyrrolo[3,4-c]pyrazole-5(1H)-carboxamide], the EC50 in experiment [1] amounted to 335 nM. The molecule also gave a Ki in experiment [2] of 33.8 nM.

`CN(C)CC(OC(=O)N1Cc2c(NC(=O)c3ccc(F)cc3)n[nH]c2C1(C)C)c1nccs1` (stereo not shown) [Example 93, 2-(dimethylamino)-1-(thiazol-2-yl)ethyl 3-(4-fluorobenzamido)-6,6-dimethylpyrrolo[3,4-c] pyrazole-5(1H,4H,6H)-carboxylate]: in experiment [1], the EC50 was determined as 178 nM. The Ki in experiment [2] is 335 nM.

In experiment [1], `CN(C)CC(OC(=O)N1Cc2c(NC(=O)c3ccc(F)cc3)n[nH]c2C1(C)C)c1ccccc1` (stereo not shown) [Example 22] had an EC50 of 14.8 nM. Affinity in experiment [2] was put at a Ki of 17.4 nM.

On to `CC(C)C[C@@H](CN(C)C)OC(=O)N1Cc2c(NC(=O)c3ccc(C(F)(F)F)cc3)n[nH]c2C1(C)C` [Example 79, (1S)-1-[(dimethylamino)methyl]-3-methylbutyl 6,6-dimethyl-3-{[4-(trifluoromethyl)benzoyl]amino}-4,6-dihydropyrrolo[3,4-c]pyrazole-5(1H)-carboxylate], for which the EC50 in experiment [1] was 2120 nM. Besides, the inhibition constant (Ki) in experiment [2] came out at 96 nM.

“3-[(2,4-difluorobenzoyl)amino]-N-[(1S)-2-(dimethylamino)-1-phenylethyl]-6,6-dimethyl-4,6-dihydropyrrolo[3,4-c]pyrazole-5(1H)-carbox- amide [Example 49]”: the response in experiment [1] was half-maximal at 90.8 nM (EC50). The molecule further registered a Ki in experiment [2] of 193 nM.

Molecule `CN(C)CC(OC(=O)N1Cc2c(NC(=O)c3ccc(F)cc3)n[nH]c2C1(C)C)c1ccccc1F` (stereo not shown) [Example 38, 2-(dimethylamino)-1-(2-fluorophenyl)ethyl 3-[(4-fluorobenzoyl)amino]-6,6-dimethyl-4,6-dihydropyrrolo[3,4-c]pyrazole-5(1H)-carboxylate] returned an EC50 in experiment [1] of 113 nM. The affinity in experiment [2], expressed as Ki, was 43.2 nM.

In the case of `CN(C)C[C@@H](NC(=O)N1Cc2c(NC(=O)c3ccc(F)cc3)n[nH]c2C1(C)C)c1ccccc1` [Example 47, N-[(1S)-2-(dimethylamino)-1-phenylethyl]-3-[(4-fluorobenzoyl)amino]-6,6-dimethyl-4,6-dihydropyrrolo[3,4-c]pyrazole-5(1H)-carboxamide], the response in experiment [1] was half-maximal at 34.7 nM (EC50). This molecule also yielded a Ki in experiment [2] of 54.2 nM.

For the molecule `CC(C)C[C@@H](CN(C)C)OC(=O)N1Cc2c(NC(=O)C3CCC3)n[nH]c2C1(C)C` [Example 80, (S)-1-[(dimethylamino)methyl]-3-methylbutyl 3-[(cyclobutylcarbonyl)amino]-6,6-dimethyl-4,6-dihydropyrrolo[3,4-c]pyrazole-5(1H)-carboxylate], in experiment [1], it took 12 nM to reach a half-maximal effect (EC50). Also, the Ki in experiment [2] turned out to be 756 nM.

In turn, `CC1(C)c2[nH]nc(NC(=O)[C@@H]3C[C@H]3c3ccccc3)c2CN1C(=O)N[C@@H]1C[C@H]1c1ccccc1` (relative stereo) [Example 108, 6,6-dimethyl-N-[trans-2-phenylcyclopropyl]-3-({[trans-2-phenylcyclopropyl]-carbonyl}amino)-4,6-dihydropyrrolo[3,4-c]pyrazole-5(1H)-carboxamide] had an EC50 in experiment [1] of 1150 nM. In addition, affinity in experiment [2] was put at a Ki of 70 nM.

For the molecule `C[C@@H]([C@@H](OC(=O)N1Cc2c(NC(=O)c3ccc(F)cc3)n[nH]c2C1(C)C)c1ccccc1)N(C)C` [Example 45, (1S,2S)-2-(dimethylamino)-1-phenylpropyl 3-[(4-fluorobenzoyl)amino]-6,6-dimethyl-4,6-dihydropyrrolo[3,4-c]pyrazole-5(1H)-carboxylate], in experiment [1], the EC50 is 21.1 nM. For the same molecule, affinity in experiment [2] was put at a Ki of 318 nM.

Turning to `CC(C)N(C)C[C@@H](OC(=O)N1Cc2c(NC(=O)c3ccc(F)cc3)n[nH]c2C1(C)C)c1ccccc1` [Example 40, (1S)-2-[isopropyl(methyl)amino]-1-phenylethyl 3-[(4-fluorobenzoyl)amino]-6,6-dimethyl-4,6-dihydropyrrolo[3,4-c]pyrazole-5(H)-carboxylate], the EC50 in experiment [1] is 152 nM. The same molecule had a Ki in experiment [2] of 64.9 nM.

In experiment [1], `CN(C)CC(OC(=O)N1Cc2c(n[nH]c2NC(=O)C2CCCO2)C1(C)C)c1cccc(F)c1` (single isomer, unassigned) [Example 83B] gave an EC50 of 5 nM. The Ki in experiment [2] amounted to 36.2 nM.

`CN(C)C[C@@H](OC(=O)N1Cc2c(NC(=O)c3ccccn3)n[nH]c2C1(C)C)c1ccccc1` [Example 6, (1S)-2-(dimethylamino)-1-phenylethyl 6,6-dimethyl-3-[(pyridin-2-ylcarbonyl)amino]-4,6-dihydropyrrolo[3,4-c]pyrazole-5(1H)-carboxylate]: the EC50 in experiment [1] was 27.9 nM. In experiment [2], this molecule registered a Ki of 30.9 nM.

`CN(C)C[C@@H](OC(=O)N1Cc2c(NC(=O)[C@H]3CCCO3)n[nH]c2C1(C)C)c1ccccc1` [Example 89, (S)-2-(dimethylamino)-1-phenylethyl 6,6-dimethyl-3-((R)-tetrahydrofuran-2-carboxamido)pyrrolo[3,4-c]pyrazole-5(1H,4H,6H)-carboxylate]: in experiment [1], the EC50 is 10 nM. Further, in experiment [2], the Ki came to 156 nM.

As for `CN(C)C[C@@H](OC(=O)N1Cc2c(NC(=O)c3ccc(C(F)(F)F)cc3)n[nH]c2C1(C)C)c1ccccc1` [Example 5], the EC50 in experiment [1] was 271 nM. The molecule further showed a Ki in experiment [2] of 14.4 nM.

The molecule `CN(C)CC(OC(=O)N1Cc2c(NC(=O)c3ccc(F)cc3F)n[nH]c2C1(C)C)c1ccccc1` (stereo not shown) [Example 23, 2-(dimethylamino)-1-phenylethyl 3-[(2,4-difluorobenzoyl)amino]-6,6-dimethyl-4,6-dihydropyrrolo[3,4-c]pyrazole-5(1H)-carboxylate] yielded an EC50 in experiment [1] of 3.9 nM. In experiment [2], this molecule gave a Ki of 122 nM.

Molecule `CN(C)C[C@@H](NC(=O)N1Cc2c(NC(=O)C3CCC3)n[nH]c2C1(C)C)c1ccccc1` [Example 53, 3-[(cyclobutylcarbonyl)amino]-N-[(1S)-2-(dimethylamino)-1-phenylethyl]-6,6-dimethyl-4,6-dihydropyrrolo[3,4-c]pyrazole-5(1H)-carboxamide] returned an EC50 in experiment [1] of 28 nM. In experiment [2], this molecule returned a Ki of 210 nM.

What is called EC50 is the concentration giving half of the maximal effect. Low readings indicate greater potency, high ones weaker potency. What is called Ki is the dissociation constant of the complex between target and ligand, obtained from inhibition or displacement. A low value points to higher affinity.

The record behind these values is patent publication US7884117B2, “Carbonylamino pyrrolopyrazoles, potent kinase inhibitors” (Pfizer Inc., priority 2005, dated 2011).
